Earlier results in patent US20150119345A1, “BILE ACID RECYCLING INHIBITORS FOR TREATMENT OF GASTROINTESTINAL INFECTIONS” (priority 2013, published 2015).

What was measured:
mice = conditions: 0.1 mg/kg rat or human GLP-2 to mice for 7-10 days

Substance: GLP-2: 33 amino acid peptide, co-secreted along with GLP-1 from intestinal endocrine cells in the small and large intestine
- small bowel weight and villus height (mice): increase in small bowel weight and villus height
- t½ in vivo: short
